According to patent publication US7148232B2, “Oxazolo, thiazolo and selenazolo [4,5-c]-quinolin-4-amines and analogs thereof” (3M Innovative Properties Company, priority 1998, dated 2006):

What was measured:
[1] = system: tumor necrosis factor (α); test: Cytokine induction in human cells: tumor necrosis factor (α) secreted by PBMCs (ELISA); type: cell-based; conditions: 18 to 24 hours
Protocol: (§1) An in vitro human blood cell system was used to assess cytokine induction by compounds of the invention.
(§2) Whole blood is collected by venipuncture into EDTA vacutainer tubes from healthy human donors. […] The PBMC suspension is added to 48 well flat bottom sterile tissue culture plates (Costar, Cambridge, Mass. or Becton Dickinson Labware, Lincoln Park, N.J.) containing an equal volume of RPMI complete media containing test compound.
(§3) The compounds are solubilized in dimethyl sulfoxide (DMSO). The DMSO concentration should not exceed a final concentration of 1% for addition to the culture wells.
(§4) The solution of test compound is added at 60 μM to the first well containing RPMI complete and serial 3 fold dilutions are made. The PBMC suspension is then added to the wells in an equal volume, bringing the test compound concentrations to the desired range (0.12 to 30 μM). The final concentration of PBMC suspension is 1.5–2×10^6 cells/mL. The plates are covered with sterile plastic lids, mixed gently and then incubated for 18 to 24 hours at 37° C. in a 5% carbon dioxide atmosphere.
(§5) Following incubation the plates are centrifuged for 5–10 minutes at 1000 rpm (˜200×g) at 4° C. The cell culture supernatant is removed with a sterile polypropylene pipet and transferred to sterile polypropylene tubes. Samples are maintained at −30 to −70° C. until analysis. The samples are analyzed for interferon (α) by either ELISA or bioassay and for tumor necrosis factor (α) by ELISA
Tumor necrosis factor (α) (TNF) concentration is determined using ELISA kits available from Genzyme, Cambridge, Mass.; R&D Systems, Minneapolis, Minn.; or Pharmingen, San Diego, Calif. according to the manufacturer's instructions.

interferon (α) [2] = test: Interferon (α) induction in human cells (in vitro human blood cell system, interferon by bioassay); type: cell-based; conditions: human PBM's, 48 hours
interferon (α) [3] = test: Cytokine induction in human cells: interferon (α) secreted by PBMCs (ELISA or bioassay); type: cell-based; conditions: 18 to 24 hours
Protocol: as §1, §2, §3, §4, §5
Interferon is determined by bioassay using A549 human lung carcinoma cells challenged with encephalomyocarditis. […] Briefly stated the method is as follows: A549 cells are incubated with dilutions of samples or a standard interferon at 37° C. for 24 hours. The incubated cells are then infected with an inoculum of encephalomyocarditis virus. The infected cells are incubated for an additional 24 hours at 37° C. before evaluating for viral cytopathic effect. The viral cytopathic effect is quantified by staining with crystal violet followed by visual scoring of the plates. Results are expressed as alpha reference units/mL based on the value obtained for NIH Human Leukocyte IFN standard.
Interferon (α) concentration is determined by ELISA using a Human Multi-Species kit from PBL Biomedical Laboratories, New Brunswick, N.J. according to the manufacturer's instructions.

Row | SMILES | melting point [°C] | Tumor Necrosis Factor Induction ([1]; Dose Concentration 0.12 μM) | Tumor Necrosis Factor Induction ([1]; Dose Concentration 0.37 μM) | Tumor Necrosis Factor Induction ([1]; Dose Concentration 1.11 μM) | Tumor Necrosis Factor Induction ([1]; Dose Concentration 3.33 μM) | Tumor Necrosis Factor Induction ([1]; Dose Concentration 10 μM) | Tumor Necrosis Factor Induction ([1]; Dose Concentration 30 μM) | Interferon (α) Induction in Human Cells (interferon (α) [2]; Dose Concentration 0.01 μg/mL) | Interferon (α) Induction in Human Cells (interferon (α) [2]; Dose Concentration 0.05 μg/mL) | Interferon (α) Induction in Human Cells (interferon (α) [2]; Dose Concentration 0.10 μg/mL) | Interferon (α) Induction in Human Cells (interferon (α) [2]; Dose Concentration 0.50 μg/mL) | Interferon (α) Induction in Human Cells (interferon (α) [2]; Dose Concentration 1.0 μg/mL) | Interferon (α) Induction in Human Cells (interferon (α) [2]; Dose Concentration 5.0 μg/mL) | Interferon (α) Induction in Human Cells (interferon (α) [2]; Dose Concentration 10.0 μg/mL) | Interferon (α) Induction (interferon (α) [3]; Dose Concentration 0.12 μM) | Interferon (α) Induction (interferon (α) [3]; Dose Concentration 0.37 μM) | Interferon (α) Induction (interferon (α) [3]; Dose Concentration 1.11 μM) | Interferon (α) Induction (interferon (α) [3]; Dose Concentration 3.33 μM) | Interferon (α) Induction (interferon (α) [3]; Dose Concentration 10 μM) | Interferon (α) Induction (interferon (α) [3]; Dose Concentration 30 μM) | also measured
1 | CC(C)c1nc2c(N)nc3ccccc3c2s1 [Example 20, 2-(1-Methyethyl)thiazolo[4,5-c]quinolin-4-amine] | 163 to 165 | − | − | − | + | + | + | − | − | − | − | − | + | + | − | − | + | − | − | − | Interferon (α) Induction in Human Cells (interferon (α) [2]; Dose Concentration 25.0 μg/mL): +; Interferon (α) Induction in Human Cells (interferon (α) [2]; Dose Concentration 50.0 μg/mL): +
2 | Nc1nc2ccccc2c2sc(CCc3ccccc3)nc12 [Example 24, 2-(2-Phenyl-1-ethyl)thiazolo[4,5-c]quinolin-4-amine] | 158 to 159 | − | − | − | − | − | + | − | − | − | − | − | − | + | − | − | − | − | − | − | Interferon (α) Induction in Human Cells (interferon (α) [2]; Dose Concentration 25.0 μg/mL): +; Interferon (α) Induction in Human Cells (interferon (α) [2]; Dose Concentration 50.0 μg/mL): +
3 | Nc1nc2ccccc2c2sc(N3CCOCC3)nc12 [Example 53, 2-(4-Morpholino)thiazolo[4,5-c]quinolin-4-amine] | 225 to 227 | − | − | − | − | − | − | − | − | − | − | − | − | − | − | − | − | − | − | − | Interferon (α) Induction in Human Cells (interferon (α) [2]; Dose Concentration 25.0 μg/mL): +; Interferon (α) Induction in Human Cells (interferon (α) [2]; Dose Concentration 50.0 μg/mL): +
4 | CCCc1nc2c(N)nc3cc(OC)ccc3c2s1 [Example 64, 7-Methoxy-2-propylthiazolo[4,5-c]quinolin-4-amine] | 152 to 154 | + | + | + | + | + | + |  |  |  |  |  |  |  | − | + | + | + | + | + | 

Further lines, with some results ahead:

Row | melting point [°C] | SMILES | Tumor Necrosis Factor Induction ([1]; Dose Concentration 0.12 μM) | Tumor Necrosis Factor Induction ([1]; Dose Concentration 0.37 μM) | Tumor Necrosis Factor Induction ([1]; Dose Concentration 1.11 μM) | Tumor Necrosis Factor Induction ([1]; Dose Concentration 3.33 μM) | Tumor Necrosis Factor Induction ([1]; Dose Concentration 10 μM) | Tumor Necrosis Factor Induction ([1]; Dose Concentration 30 μM) | Interferon (α) Induction in Human Cells (interferon (α) [2]; Dose Concentration 0.01 μg/mL) | Interferon (α) Induction in Human Cells (interferon (α) [2]; Dose Concentration 0.05 μg/mL) | Interferon (α) Induction in Human Cells (interferon (α) [2]; Dose Concentration 0.10 μg/mL) | Interferon (α) Induction in Human Cells (interferon (α) [2]; Dose Concentration 0.50 μg/mL) | Interferon (α) Induction in Human Cells (interferon (α) [2]; Dose Concentration 1.0 μg/mL) | Interferon (α) Induction in Human Cells (interferon (α) [2]; Dose Concentration 5.0 μg/mL) | Interferon (α) Induction in Human Cells (interferon (α) [2]; Dose Concentration 10.0 μg/mL) | Interferon (α) Induction (interferon (α) [3]; Dose Concentration 0.12 μM) | Interferon (α) Induction (interferon (α) [3]; Dose Concentration 0.37 μM) | Interferon (α) Induction (interferon (α) [3]; Dose Concentration 1.11 μM) | Interferon (α) Induction (interferon (α) [3]; Dose Concentration 3.33 μM) | Interferon (α) Induction (interferon (α) [3]; Dose Concentration 10 μM) | Interferon (α) Induction (interferon (α) [3]; Dose Concentration 30 μM) | also measured
5 | 190 to 192 | CCCc1nc2c(N)nc3ccc(N)cc3c2s1 [Example 42, 2-Propylthiazolo[4,5-c]quinolin-4,8-diamine] | − | − | + | + | + | + | − | − | − | + | + | + |  | − | − | − | − | + | − | 
6 | 136 to 138 | CCCCc1nc2c(N)nc3cccnc3c2s1 [Example 58, 2-Butylthiazolo[4,5-c][1,5]naphthyridin-4-amine] | − | + | + | + | + | + |  |  |  |  |  |  |  | − | − | − | − | ± | ± | 
7 | 135 to 136 | CCCc1nc2c(N)nc3cccnc3c2s1 [Example 60, 2-Propylthiazolo[4,5-c][1,5]naphthyridin-4-amine] | − | ± | + | + | + | + |  |  |  |  |  |  |  | − | − | − | − | − | − | 
8 | 159 to 160 | CCCc1nc2c(N)nc3cc(Cl)ccc3c2s1 [Example 63, 7-Chloro-2-propylthiazolo[4,5-c]quinolin-4-amine] | + | + | + | + | + | + |  |  |  |  |  |  |  | − | − | + | + | + | − | 
